Values belong to the compound of their own block, whether it stands above or below them. Bridge positions count the residues as written; N and C are the ends. Square brackets hold non-standard residues; d marks the D form. Peptide text beside a SMILES is read from it. AEEA = NCCOCCOCC(=O)O
How the values were obtained:
[1] = Circular dichroism, calculated helicity; type: physicochemical; conditions: 10 mM sodium phosphate pH 7.4, 75 to 10 µM peptide, CDNN software PEPFIT mode, unbound peptide
Protocol: The spectra were obtained using a Jasco J-715 and a cuvette 0.1 mm. Represented CD spectra are an average of five measurements done between λ = 190 and 300 nm with a continuous scan mode, 50 nm min^−1 scan speed and data point every 1 nm. The α-helicity was calculated using CDNN software using the PEPFIT mode[42].

[2] = tested on: YAP–TEAD interaction; test: Proximity ligation assay (PLA) in RKO cells; type: cell-based; conditions: 24 h incubation, c = 30 µM
Protocol: Ca. 5000 RKO cells were seeded per well in black 96-well plates with glass bottom (#5241-20, MoBiTec) and treated with the peptides or DMSO as vehicle control. After 24 h, the cells were fixed for 10 min using 4% paraformaldehyde (#UN2209, AppliChem) in PBS prior to permeabilization with 0.1% Triton X-100 (#39795.02, Serva) in PBS for 10 min. […] The cells were treated with the corresponding PLA probes (donkey anti-rabbit PLUS, #DUO92002, dilution 1:5; donkey anti-mouse MINUS, #DUO92004, dilution 1:5, Sigma-Aldrich) and with the Duolink In Situ Detection Orange Kit (#DUO92007, Sigma-Aldrich) for ligation and amplification according to the manufacturer's instructions. Finally, the cells were treated with 1 μg mL^-1 DAPI (#D9542, Sigma-Aldrich) to stain nuclei for further microscopy analysis. Images were acquired using a Zeiss Observer Z1 microscope with an 63× oil objective. Picture data were analysed by the ImageJ “analyze particles” macro to count PLA spots per cell. Ten pictures were counted for each condition per experiment. Statistical analysis was performed using Student's paired t test.

[3] = tested on: RKO cells; test: Sub-cellular (cytoplasmic, nuclear) peptide concentration in RKO cells by UPLC-MS; conditions: for Sub-cellular drug content, Cytoplasm, Measured concentration / Sub-cellular drug content, Cytoplasm, nMol / Sub-cellular drug content, Nuclear, Measured concentration / Sub-cellular drug content, Nuclear, nMol / Sub-cellular drug content, Cytoplasm, pMol.mg-1 / Sub-cellular drug content, Nuclear, pMol.mg-1 / Detection in cytoplasmic and nuclear fractions / Sub-cellular drug content, Cytoplasm / Sub-cellular drug content, Nuclear: fractionation; for Sub-cellular drug content, Cytoplasm, Measured concentration / Sub-cellular drug content, Cytoplasm, nMol / Sub-cellular drug content, Nuclear, Measured concentration / Sub-cellular drug content, Nuclear, nMol / Sub-cellular drug content, Cytoplasm, pMol.mg-1 / Sub-cellular drug content, Nuclear, pMol.mg-1 / Cytoplasmic concentration of peptide / Nuclear concentration of peptide / Cytoplasmic concentration, raw data / Nuclear concentration, raw data / Detection in cytoplasmic and nuclear fractions / Sub-cellular drug content, Cytoplasm / Sub-cellular drug content, Nuclear: UPLC-MS; for Sub-cellular drug content, Cytoplasm, Measured concentration / Sub-cellular drug content, Cytoplasm, nMol / Sub-cellular drug content, Nuclear, Measured concentration / Sub-cellular drug content, Nuclear, nMol / Sub-cellular drug content, Cytoplasm, pMol.mg-1 / Sub-cellular drug content, Nuclear, pMol.mg-1 / Sub-cellular drug content, Cytoplasm / Sub-cellular drug content, Nuclear: n = 2; for Sub-cellular drug content, Cytoplasm, pMol.mg-1 / Sub-cellular drug content, Nuclear, pMol.mg-1: per mg protein; for Cytoplasmic concentration of peptide: cytoplasmic fraction; for Nuclear concentration of peptide: nuclear fraction; for Cytoplasmic concentration, raw data / Nuclear concentration, raw data: sheet Figure 3c, 25 µM unlabelled peptide; for Detection in cytoplasmic and nuclear fractions / Intracellular concentration: unlabelled peptide 25 µM; for Detection in cytoplasmic and nuclear fractions: 90 min and 24 h; for Intracellular concentration: mass spectrometry
Protocol: Peptides were incubated in RKO cells (ATCC, #CRL-2577) as follows: Experiment 1: RKO cells were incubated in 25 µM compound for 90 min and 24 h. Experiment 2: RKO cells were incubated in 25 µM for 30 min or 72 h. Following peptide incubation, the cells were washed twice with PBS, trypsinized and pelleted. The pellets were lysed in RIPA buffer (Perkin Elmer) for total lysis, or CelLytic NuCLEAR Extraction Kit (SIGMA) for subcellular fractionation. Total protein quantification BCA (Pierce) was performed prior to MS analysis to normalize sample data. Total and fractionated cell lysates were analysed by quantitative UPLC-MS utilizing a Waters Xevo TQ-XS (WBA0259) and an Acquity UPLC system from Waters consisting of Sample Manager (M16UFL953M), Acquity PDA (F17UPD457A), Column Oven (E17CMP703G) and Binary Solvent Manager (E17BUR621G). […] Chromatograms of the samples were treated similarly, and by linear regression (1/x) an in-cell concentration was established in the re-suspended cell lysate using the Waters MassLynx TargetLynx^TM product.

[4] = tested on: TEAD target genes; test: qPCR analysis of TEAD target genes in cardiomyocytes from human ES cell line (H7); type: cell-based; conditions: c = 30 µM, t = 18 h
[5] = tested on: YAP; test: YAP localization assay in juvenile rat cardiomyocytes; type: cell-based; conditions: for YAP ratio (nucleus/cytoplasm), Mean: 4 h, primary juvenile rat cardiomyocytes, DMSO mean 2.99; for YAP ratio in cardiomyocytes (nucleus/cytoplasm): fluorescence immunocytochemistry, 8 Hours, mean of n = 3
Protocol: We analysed the YAP sub-cellular distribution in cardiomyocytes by means of fluorescence intensity after immunocytochemistry. After 3 days in culture, the cardiac cells were treated and fixed 4, 8, and 24 h after treatment. […] Secondary antibodies were used to detect the primary antibodies (goat anti-mouse Alexa Fluor 568, A-11004, dilution 1:1000 and goat anti-rabbit AlexaFluor 488, A-11008, dilution 1:1000, both from Thermo Fisher Scientific) and nuclei were counterstained with DAPI (2-(4-amidinophenyl)-1H-indole-6-carboxamidine, dilution 1:1000, Roth). The samples were then imaged and analysed on an ImageXpress XL automated microscope (Molecular Devices). […] Data are depicted as means ± SEM.

[6] = biological target: T1, hTEAD1–VGL4 complex (Homo sapiens, UniProt P28347); test: Competitive FP, displacement of labelled VGL4(203–256) from hTEAD1; type: binding
T1 construct: CDNA of hTEAD1(209–426) fused with an N-terminal GST tag; GST (N); 6x His-tag (N); 3C protease cleavage site (N); made in house; host or cells: Escherichia coli BL21 DE3 RIL(K+); tracer peptide synthetic
Protocol: Next, the ability of the peptides in our panel to inhibit the TEAD–VGL4 interaction was investigated. For this purpose, a competition pull-down experiment was performed using biotinylated VGL4(203–256) (b-1) as the bait for GST-tagged hTEAD1. b-1 was immobilized on streptavidin magnetic beads and hTEAD1 pull-down was detected using gel electrophoresis (Fig. 3d). […] To evaluate how inhibitor binding discriminates between these two binding partners, we performed a competitive binding assay based on FP.
Supplementary Figure 15│ Binding studies of hTEAD1 by fluorescence polarization. Dissociation constants were measured […]
The fluorescent cofactor (10 nM) are directly titrated with hTEAD1. After 1 hour of incubation, fluorescence polarization was measured, and a non-linear fitting was applied to the curves to determine the […]
In the competitive binding assay, first a complex with the fluorescent cofactor (10 nM) and hTEAD1 (100 nM) was formed and after 1 hour of incubation, the unlabelled peptide was titrated. After 1 hour of incubation, fluorescence polarization was measured, and a non-linear fitting was applied to the curves to determine the half maximal inhibitory concentration. (c) Competition assay […]
Mean ± SEM of triplicates were plotted for all data. Source data are provided as a Source Data file.
(1 picture or pasted object on this page, not shown here)

[7] = Peptide stability in cell culture media with 10% FBS; conditions: 30 µM peptide, MEM + 10% FBS, 37 °C, HPLC/MS, duplicates
Protocol: A total of 30 µM of the peptide was incubated in MEM media supplemented with 10% FBS at 37 °C. At the indicated time point, 25 µL of the sample was withdrawn, mixed with an equal volume of the internal standard solution (6 µM Fmoc-Arg(Pbf)-OH), kept on ice for 15 min followed by centrifugation (16×g) at 4 °C for 5 min. The supernatant was analysed with LC-MS (UltiMate 3000 UHPLC Systems) using C18 reverse phase column (Nucleodur, 1.8 µm C18 gravity, 2 mm) and Thermo Orbitrap Velos Pro ETD. The peptide absorbance (λ = 280 nm) or the mass spectrometry peak intensity relative to that of the internal standard peak intensity was graphed. The stability experiments were performed in duplicates.

T1 sequence (P28347 209-426, one chain of several): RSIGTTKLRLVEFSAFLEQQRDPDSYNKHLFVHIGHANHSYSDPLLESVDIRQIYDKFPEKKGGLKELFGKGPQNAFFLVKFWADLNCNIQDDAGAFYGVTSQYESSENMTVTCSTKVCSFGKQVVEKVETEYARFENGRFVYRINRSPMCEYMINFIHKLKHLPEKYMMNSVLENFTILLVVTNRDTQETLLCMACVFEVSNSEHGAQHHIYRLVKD

Helicity (CD) [1]: 23%
Sub-cellular drug content, Cytoplasm, Measured concentration ([3]; 25 µM compound, 90 minutes): < LLOQ
Sub-cellular drug content, Cytoplasm, nMol ([3]; 25 µM compound, 90 minutes): < LLOQ
Sub-cellular drug content, Nuclear, Measured concentration ([3]; 25 µM compound, 90 minutes): < LLOQ
Sub-cellular drug content, Nuclear, nMol ([3]; 25 µM compound, 90 minutes): < LLOQ
Sub-cellular drug content, Cytoplasm, pMol.mg-1 ([3]; 25 µM compound, 90 minutes): < LLOQ
Sub-cellular drug content, Nuclear, pMol.mg-1 ([3]; 25 µM compound, 90 minutes): < LLOQ
Sub-cellular drug content, Cytoplasm, Measured concentration ([3]; 25 µM compound, 24 hours): < LLOQ
Sub-cellular drug content, Cytoplasm, nMol ([3]; 25 µM compound, 24 hours): < LLOQ
Sub-cellular drug content, Nuclear, Measured concentration ([3]; 25 µM compound, 24 hours): < LLOQ
Sub-cellular drug content, Nuclear, nMol ([3]; 25 µM compound, 24 hours): < LLOQ
Sub-cellular drug content, Cytoplasm, pMol.mg-1 ([3]; 25 µM compound, 24 hours): < LLOQ
Sub-cellular drug content, Nuclear, pMol.mg-1 ([3]; 25 µM compound, 24 hours): < LLOQ
Cytoplasmic concentration of peptide ([3]; raw data replicate 1): <LLOQ
Cytoplasmic concentration of peptide ([3]; raw data replicate 2): <LLOQ
Nuclear concentration of peptide ([3]; raw data replicate 1): <LLOQ
Nuclear concentration of peptide ([3]; raw data replicate 2): <LLOQ
Cytoplasmic concentration, raw data ([3]; replicate 1): <LLOQ
Nuclear concentration, raw data ([3]; replicate 1): <LLOQ
Cytoplasmic concentration, raw data ([3]; replicate 2): <LLOQ
Nuclear concentration, raw data ([3]; replicate 2): <LLOQ
Detection in cytoplasmic and nuclear fractions [3]: not detected in subcellular fractions
Intracellular concentration ([3]; 90 min incubation, n = 2 biological replicates): < LLOQ
Intracellular concentration ([3]; 24 hours incubation, N = 2 biological replicates): < LLOQ
Structure (SMILES): CC[C@H](C)[C@@H]1NC(=O)[C@H](CCC(N)=O)NC(=O)[C@H](CC(C)C)NC(=O)[C@H](Cc2c[nH]c3ccccc23)NC(=O)[C@H]([C@@H](C)O)NC(=O)[C@H](CC(=O)O)NC(=O)CNC(=O)[C@H](CC(C)C)NC(=O)[C@H](C)NC(=O)[C@H](CCCCN)NC(=O)[C@H](C)NC(=O)[C@H](Cc2ccccc2)NC(=O)[C@H](Cc2c[nH]cn2)NC(=O)[C@H](CC(=O)O)NC(=O)[C@@H](NC(=O)[C@@H](NC(=O)[C@H](CO)NC(C)=O)C(C)C)CCC(=O)NCCCC[C@@H](C(=O)N[C@@H](C)C(=O)N[C@@H](C)C(N)=O)NC1=O [4E] (Ac-SVEDHFAKALGDTWLQIKAA-NH2; lactam 3-18)
Effect on YAP–TEAD complexes (PLA) [2]: only shows a small change in PLA events

Structure (SMILES): CC[C@H](C)[C@@H]1NC(=O)[C@H](CCC(N)=O)NC(=O)[C@H](CC(C)C)NC(=O)[C@H](Cc2c[nH]c3ccccc23)NC(=O)[C@H]([C@@H](C)O)NC(=O)[C@H](CC(=O)O)NC(=O)CNC(=O)[C@H](CC(C)C)NC(=O)[C@H](C)NC(=O)[C@H](CCCCN)NC(=O)[C@H](C)NC(=O)[C@H](Cc2ccccc2)NC(=O)[C@H](Cc2c[nH]cn2)NC(=O)[C@H](CC(=O)O)NC(=O)[C@@H](NC(=O)[C@@H](NC(=O)[C@H](CO)NC(=O)COCCOCCNC(=O)[C@H](CCC(N)=O)NC(=O)[C@@H]2CCCN2C(=O)[C@H](CCCNC(=N)N)NC(=O)[C@H](CCCNC(=N)N)NC(=O)[C@H](CCCNC(=N)N)NC(=O)[C@H](CCC(N)=O)NC(=O)[C@H](CCCNC(=N)N)NC(=O)[C@H](CCCNC(=N)N)NC(=O)[C@H](CCCCN)NC(=O)[C@H](CCCCN)NC(=O)[C@H](CCCNC(=N)N)NC(=O)CNC(C)=O)C(C)C)CCC(=O)NCCCC[C@@H](C(=O)N[C@@H](C)C(=O)N[C@@H](C)C(N)=O)NC1=O [compound 7] (Ac-GRKKRRQRRRPQ[AEEA]SVEDHFAKALGDTWLQIKAA-NH2; lactam 16-31)
Effect on expression of TEAD target genes ([4]; qPCR): increased levels of the cell cycle genes CYR61, CTGF, ANKRD1, and SEPINE1
RQ (relative target quantity) ([4]; target gene ANKRD1, RT-qPCR): 4.731
RQ (relative target quantity) ([4]; target gene CTGF, RT-qPCR): 1.987
RQ (relative target quantity) ([4]; target gene CYR61, RT-qPCR): 3.964
RQ (relative target quantity) ([4]; target gene SERPINE1, RT-qPCR): 3.52
Effect on YAP–TEAD complexes (PLA) [2]: an increase in YAP–TEAD complexes
YAP ratio (nucleus/cytoplasm), Mean ([5]; 5 µM): 3.475
YAP ratio (nucleus/cytoplasm), Mean ([5]; 5 µM, listed as peptide 7): 3.48
YAP ratio (nucleus/cytoplasm), Mean ([5]; 10 µM): 5.895
YAP ratio (nucleus/cytoplasm), Mean ([5]; 10 µM, listed as peptide 7): 5.89
YAP ratio in cardiomyocytes (nucleus/cytoplasm) ([5]; 5 µM of 7): 2.607
YAP ratio in cardiomyocytes (nucleus/cytoplasm) ([5]; 10 µM of 7): 3.272
Effect on sub-cellular distribution of YAP ([5]; juvenile rat cardiomyocytes, 4 h treatment, vs vehicle control): increased nuclear accumulation of YAP
required concentration for VGL4 competition in the homogeneous FP-based competition assay ([6]; hTEAD1): ca. 10 µM
IC50 ([6]; labelled VGL4(203–256) 10 nM + hTEAD1 100 nM pre-incubated 1 h, unlabelled peptide titrated, 1 h, triplicates, read-out: IC50, inhibition of hTEAD1–VGL4 complex): 5.46 ± 0.253 µM
Sub-cellular drug content, Cytoplasm ([3]; 25 µM compound, 90 minutes): 0.07968 nmol
Sub-cellular drug content, Cytoplasm, Measured concentration ([3]; 25 µM compound, 90 minutes): 265.5865 nM
Sub-cellular drug content, Nuclear ([3]; 25 µM compound, 90 minutes): 0.1853 nmol
Sub-cellular drug content, Nuclear, Measured concentration ([3]; 25 µM compound, 90 minutes): 123.5385 ± 6.5745 nM
Sub-cellular drug content, Cytoplasm ([3]; 25 µM compound, 24 hours): 0.04677 nmol
Sub-cellular drug content, Cytoplasm, Measured concentration ([3]; 25 µM compound, 24 hours): 155.914 ± 40.331 nM
Sub-cellular drug content, Nuclear ([3]; 25 µM compound, 24 hours): 0.06065 nmol
Sub-cellular drug content, Nuclear, Measured concentration ([3]; 25 µM compound, 24 hours): 202.161 ± 23.082 nM
loss of cytosolic concentration between 90 min and 24 h incubation ([3]; 25 µM, authors' response in peer review file): 47%
pMol/mg ([3]; Cytoplasm, 25 µM compound, 90 minutes (1.5 hrs), replicate 1): 104.1 pMol/mg
pMol/mg ([3]; Cytoplasm, 25 µM compound, 90 minutes (1.5 hrs), replicate 2): 74.3 pMol/mg
pMol/mg ([3]; Cytoplasm, 25 µM compound, 24 hours, replicate 1): 73.3 pMol/mg
pMol/mg, Mean ([3]; Nuclear, 25 µM compound, 90 minutes (1.5 hrs), mean of 2 replicates): 231.15 pMol/mg
pMol/mg ([3]; Nuclear, 25 µM compound, 24 hours, replicate 1): 336.5 pMol/mg
Cytoplasmic concentration of peptide ([3]; mean of n = 2): 89.2 pMols/mg of protein
Nuclear concentration of peptide ([3]; mean of n = 2): 209 pMols/mg of protein
Detection in cytoplasmic and nuclear fractions [3]: found in both compartments
peptide intact after 24 h [7]: about 80%

Reference: publication PMC7591920, “A protein tertiary structure mimetic modulator of the Hippo signalling pathway” (Nature Communications, 2020)
